How the values were obtained:
[1] = system: RAS; set-up: method as in earlier work; settings: RAS antagonist, ref Reif et al., 1999, Katzav et al., 2001, Clarke et al., 2003, 2004, Kafri et al., 2005, Nevo et al., 2011, Rokni et al., 2022; cited from earlier work
[2] = system: COL1A1; assay: COL1A1 expression in TGF-β1 stimulated hHOs (western blot, immunocytochemistry); format: cell-based, human; settings: 5 ng/ml TGF-β1 for 24 h, SB202190 10 μM, TAC 10 μM, Sirolimus 200 nM
Method: Immunofluorescence staining of hHOs was conducted as previously described. hHOs were fixed by 4% PFA solution for 45–60 min at room temperature and incubated in blocking/permeabilization solution containing 10% normal donkey serum (Abcam), 0.5% Triton X-100 (nacalai tesque) and 0.5% BSA (nacalai tesque) at 4°C overnight. Subsequently, hHOs were stained with primary and secondary antibodies in PBS containing 1% normal donkey serum, 0.5% Triton X-100 and 0.5% BSA, respectively. Nuclei were stained with Hoechst 33342 (1:1000) before mounting. A confocal laser scanning microscope (Olympus FV3000) was used for fluorescent observation. Primary antibodies used are listed as follows: anti-Vimentin (1:200, ab11256, Abcam); anti-Collagen I (1:200, ab34710, Abcam); anti-WT1 (1:200, ab89901, Abcam); anti-ZO-1 (1:200, 33-9100, Invitrogen); anti-CD31/PECAM1 (1:50, ab28364, Abcam); anti-Cardiac Troponin T (1:200, ab8295, Abcam); anti-NFAT2 (1:200, ab25916, Abcam); anti-CD90/THY1 (1:200, ab133350, Abcam). […]
Cells were lysed in M-PER Mammalian Protein Extraction Reagent (78501, Thermo Scientific) buffer, and hHOs were lysed in T-PER Tissue Protein Extraction Reagent (78510, Thermo Scientific). The amount of protein was determined by Bradford assay using BSA as a standard. […]

[3] = system: iPSC-derived human heart organoids (hHOs); assay: Cardiotoxicity MTT assay in iPSC-derived human heart organoids (96 h); format: cell-based; settings: hHOs day 15, MTT, read-out: IC50 (hHO cellular viability)
Method: SB202190, Tacrolimus, and Sirolimus were prepared alone or in combinations mixed in DMSO for each experiment. hHOs were differentiated and seeded separately in low-binding 96-w plates. The effectiveness of the treatment was measured after the usage of decreasing concentrations in a 1:2 ratio to day 15 of developing heart organoids. All treatments were applied by reducing dosages of SB202190, Tacrolimus, or Sirolimus in monotherapy or combination. The proliferation capacity as a functional assay was determined using an MTT assay after 96 h (4 days). Cytotoxicity profiling was drafted by obtaining absorbance metrics at 595 nm using a particular microplate reader; then, IC50 values were calculated using GraphPad Prism 7.

[4] = system: hHO spontaneous beating; assay: Organoid beating evaluation (beating count vs untreated organoid); format: cell-based, human; settings: hHOs, 96 h
Source text: For organoid beating evaluation, we measured the beating count at 10 s intervals and then compared it to the beating count of the untreated organoid for each case in biological triplicates.

[5] = Cytotoxic assay in cardiac fibroblasts (crystal violet, 96 h); format: cell-based; settings: human, human ventricular cardiac fibroblasts (NHCF-V), NHCF-V cell line, read-out: IC50 (cytotoxicity, CF viability)
Method: SB202190, Tacrolimus, and Sirolimus were freshly and individually prepared in DMSO for each individual experiment. Cardiac fibroblasts were seeded individually in 96-well plates (5,000 cells per well). The treatment effectiveness was assayed after applying reducing concentrations in a 1:2 fixed ratio to cycling cells in the exponential phase. All treatments were assessed within reducing doses of SB202190, Tacrolimus, or Sirolimus in monotherapy or combination in fixed proportions a day after the seeding. The proliferation viability was determined by crystal violet after 96 h. Cytotoxicity profiles were measured by absorbance at 595 nm using a microplate reader; then, IC50 values were estimated using GraphPad Prism 7 software.

[6] = system: COL1A1; assay: COL1A1 expression in NHCF-V cardiac fibroblasts (western blot, immunocytochemistry); format: cell-based, human; settings: for COL1A1 protein expression: 5 ng/ml TGF-β1 for 24 h, SB202190 10 μM, TAC 10 μM, Sirolimus 200 nM
Method: Cells were fixed by 4% PFA treatment for 15 min and stored in PBS at 4°C. Blocking was performed for 30–45 min in a blocking buffer containing 1% BSA, 0.5% Triton X-100 and 0.1 M glycine in PBS. After washing three times with PBS, primary antibody anti-Collagen I (1:200, ab34710, Abcam) was added to the blocking buffer (w/o glycine) and incubated overnight at 4°C. The next day, cells were washed three times with PBS, and secondary antibody donkey anti-rabbit Alexa Fluro 594 (1:1000, A21207, Invitrogen) was added in 1% BSA-PBS for 2 h at RT. After washing three times with PBS, 1:10,000 Hoechst 33342 was added for nuclear counterstaining. Images were taken with Keyence.
After 3 days of treatment on unstimulated CFs, we treated cells with 5 ng/ml of TGF-β1 in combination with the inhibitors for another 24 h to recapitulate pathological conditions of heart disease and induced a forced expression of ECMs, with a particular focus on COL1A1 as a major component of the Collagen type I.

[7] = system: IL-11 and phospho-p38; assay: Western blot for IL-11 and phospho-p38 in TGF-β1 stimulated hHOs; format: cell-based, human
Method: (§1) Cells were lysed in M-PER Mammalian Protein Extraction Reagent (78501, Thermo Scientific) buffer, and hHOs were lysed in T-PER Tissue Protein Extraction Reagent (78510, Thermo Scientific). The amount of protein was determined by Bradford assay using BSA as a standard. The primary antibodies were purchased from commercial sources as follows: anti-phospho-S6 Ribosomal Protein (1:1000, 5364, CST); anti-phospho-4E-BP1 (1:1000, 2855, CST); anti-4E-BP1 (1:1000, 9644, CST); anti-phospho-p38 (1:1000, 4631, CST); anti-p38 (1:1000, 9212, CST); anti-phospho-AKT (1:1000, 9271, CST); anti-Collagen I (1:1000, ab34710, abcam); anti-IL-11 (1:1000, ab76589, abcam); anti-β-actin (1:1000, A5441, Sigma). The secondary antibodies used are as follows: goat anti-rabbit IgG (HRP) (1:5000, sc-2054, Santa cruz), and anti-mouse IgG (HRP) (1:5000, 7076, CST).

[8] = system: mTORC1 downstream targets p4E-BP1 and pS6K; assay: Western blot for pathway targets in NHCF-V; format: cell-based, human; settings: 200 nM
Method: as §1

safe dosages preserving average beating rates compared to untreated organoids (from ... downwards) [4] | Structure (SMILES) | inflammation and fibrosis in animal models [1] | TGF-β1 driven COL1A1 expression / ECM depositions [2] | IC50 [3] | IC50 at 96 h [5] | COL1A1 protein expression [6] | levels of IL-11 and phospho-p38 [7] | inhibition of mTORC1 downstream targets p4E-BP1 and pS6K [8] | COL1A1 levels in TGF-β1 unstimulated condition ([6]; unstimulated, western blot)
– | CC(C)=CCC/C(C)=C/CC/C(C)=C/CSc1ccccc1C(=O)O [FTS, Farnesythiosalicylic acid] | decreasing inflammation and fibrosis in animal models | – | – | – | – | – | – | –
≤ 100 µM | Oc1ccc(-c2nc(-c3ccncc3)c(-c3ccc(F)cc3)[nH]2)cc1 [SB202190] | – | effectively reduced TGF-β1 driven COL1A1 expression | 72.4 µM | 13.9 µM | independent effect in reducing COL1A1 protein expression | – | – | –
≤ 2.5 µM | CO[C@H]1C[C@@H]2CC[C@@H](C)[C@@](O)(O2)C(=O)C(=O)N2CCCC[C@H]2C(=O)O[C@H]([C@H](C)C[C@@H]2CC[C@@H](O)[C@H](OC)C2)CC(=O)[C@H](C)/C=C(\C)[C@@H](O)[C@@H](OC)C(=O)[C@H](C)C[C@H](C)/C=C/C=C/C=C/1C [Sirolimus] | – | this phenotype is lost in heart organoids | 5.01 ± 0.4 µM | 3.54 ± 0.2 µM | independent effect in reducing COL1A1 protein expression | rescued levels of IL-11 and phospho-p38 | inhibit the mTORC1 downstream targets p4E-BP1 and pS6K | –
≤ 12 µM | C=CC[C@@H]1/C=C(\C)C[C@H](C)C[C@H](OC)[C@H]2O[C@@](O)(C(=O)C(=O)N3CCCC[C@H]3C(=O)O[C@H](/C(C)=C/[C@@H]3CC[C@@H](O)[C@H](OC)C3)[C@H](C)[C@@H](O)CC1=O)[C@H](C)C[C@@H]2OC [Tacrolimus] | – | – | 19.9 µM | 12.6 µM | no effect | – | – | mildly increase COL1A1 levels

Source: publication PMC9692097, “Immunosuppressants Tacrolimus and Sirolimus revert the cardiac antifibrotic properties of p38-MAPK inhibition in 3D-multicellular human iPSC-heart organoids” (Frontiers in Cell and Developmental Biology, 2022)
